Reference: publication PMC5740381 (Antimicrobial Agents and Chemotherapy, 2017)
Read-outs that look alike come from different tables or passages of the source.

Key:
[1] = tested on: HCV subgenomic stable replicon GT6a; assay: Stable HCV replicon luciferase assay in Huh-7 cells; assay type: cell-based, Hepatitis C virus; details: read-out: Mean EC50 ± SD
Source text: (§1) . Five of these nine cell lines have been described previously, including those transfected with genotypes 1a H77, 1b Con1, 3a, 4a, and 6a ([28]). The other four cell lines were established by transfecting cells with a nonchimeric genotype 2a JFH-1 replicon (GenBank accession number AB047639), two genotype 2a JFH-1 chimeric replicons containing either a genotype 2b NS3 protease domain (N-terminal 251 amino acids) or a sequence encoding full-length NS3 through the first 39 amino acids of NS5B from genotype 5a (strain SA13), and one chimeric replicon with a genotype 1b Con1 backbone containing full-length NS3 and NS4A sequences from genotype 6e. The genotype 2b and 6e NS3 sequences were each synthetically constructed based on a consensus sequence derived from the alignment of 15 genotype 2b and 4 genotype 6e sequences, respectively. All replicon constructs were bicistronic subgenomic replicons similar to those described by Bartenschlager and coworkers, and the replicon cell lines were generated by introducing these constructs into cells of an Huh-7 human hepatoma-derived cell line ([50]). The inhibitory effect of the PIs on HCV replication in replicon cells was determined in Dulbecco's modified Eagle medium containing 5% fetal bovine serum with or without 40% human plasma (Bioreclamation, Westbury, NY). The EC50s were determined using nonlinear regression curve fitting as described previously ([33]).

[2] = tested on: HCV subgenomic stable replicon GT4a; assay: as above; assay type: cell-based, Hepatitis C virus; details: read-out: Mean EC50 ± SD
Source text: as §1

[3] = tested on: HCV subgenomic stable replicon GT3a; assay: microbe, parasite or virus in culture; assay type: cell-based, Hepatitis C virus; details: read-out: Mean EC50 ± SD
Source text: (§2) Five of these nine cell lines have been described previously, including those transfected with genotypes 1a H77, 1b Con1, 3a, 4a, and 6a ([28]). […] The genotype 2b and 6e NS3 sequences were each synthetically constructed based on a consensus sequence derived from the alignment of 15 genotype 2b and 4 genotype 6e sequences, respectively. All replicon constructs were bicistronic subgenomic replicons similar to those described by Bartenschlager and coworkers, and the replicon cell lines were generated by introducing these constructs into cells of an Huh-7 human hepatoma-derived cell line ([50]). The inhibitory effect of the PIs on HCV replication in replicon cells was determined in Dulbecco's modified Eagle medium containing 5% fetal bovine serum with or without 40% human plasma (Bioreclamation, Westbury, NY). The EC50s were determined using nonlinear regression curve fitting as described previously ([33]).

HCV genotype 1a replicon = assay: Transient replicon assay with engineered substitutions; assay type: cell-based, Hepatitis C virus; details: read-out: Mean EC50 ± SD
Procedure: (§3) Mutagenesis was performed using a Change-IT multiple-mutation site-directed mutagenesis kit (USB, Cleveland, OH) or by cloning a synthesized DNA fragment encoding the amino acid substitution(s). The genotype 1a and 1b replicon shuttle vectors used for the introduction of the substitutions of interest in the NS3, NS5A, or NS5B gene for transient-transfection assays have been described previously ([28], [33]). The replicon shuttle vectors used for the introduction of substitutions in NS3 genes from other genotypes were similar to the stable replicon cell line constructs described above, except for the absence of the neo gene. After mutagenesis, the plasmids were linearized and RNA was transcribed and then used to transfect Huh-7 cells. Inhibition of HCV replication by the HCV inhibitors was measured by luciferase assay, as described above. Replication efficiency was calculated as a percentage of wild-type replication, as described previously ([28]).

HCV genotype 1b replicon = assay: as above; assay type: cell-based, Hepatitis C virus; details: read-out: Mean EC50 ± SD
Procedure: as §3

HCV genotype 4a replicon = assay: as above; assay type: cell-based, Hepatitis C virus
Procedure: as §3

HCV genotype 6a replicon = assay: as above; assay type: cell-based, Hepatitis C virus
Procedure: as §3

HCV genotype 2b replicon = assay: as above; assay type: cell-based, Hepatitis C virus
Procedure: as §3

HCV genotype 5a replicon = assay: as above; assay type: cell-based, Hepatitis C virus; details: 5a wild type, transient transfection; read-out: Mean EC50 ± SD
Procedure: as §3

HCV genotype 2a replicon = assay: as above; assay type: cell-based, Hepatitis C virus; details: read-out: Mean EC50 ± SD
Procedure: as §3

HCV genotype 4d replicon = assay: as above; assay type: cell-based, Hepatitis C virus
Procedure: as §3

HCV genotype 3a replicon = assay: as above; assay type: cell-based, Hepatitis C virus
Procedure: as §3

[4] = tested on: HCV subgenomic stable replicon GT2b; assay: Stable HCV replicon luciferase assay in Huh-7 cells; assay type: cell-based; details: Hepatitis C virus, 0% human plasma, read-out: Mean EC50 ± SD
Source text: as §2

[5] = Hepatitis C virus, Huh-7, 0% human plasma

Structure (SMILES): C=C[C@@H]1C[C@]1(NC(=O)[C@@H]1C[C@@H]2CN1C(=O)[C@H](C(C)(C)C)NC(=O)O[C@@H]1C[C@H]1CCCCCc1nc3ccc(OC)cc3nc1O2)C(=O)NS(=O)(=O)C1CC1 [Grazoprevir]
- EC50 ([1]; 0% human plasma): 0.89 ± 0.32 nM
- EC50 ([2]; 0% human plasma): 1.2 ± 0.31 nM
- EC50 ([3]; 0% human plasma): 83 ± 18 nM
- EC50 (HCV genotype 1a replicon; 1a NS3 A156T): 92 ± 6 nM
- EC50 (HCV genotype 1a replicon; 1a NS3 D168E): 4.6 ± 0.66 nM
- EC50 (HCV genotype 1a replicon; 1a NS3 D168V): 30 ± 13 nM
- EC50 (HCV genotype 1a replicon; 1a NS3 F43L): 0.19 ± 0.05 nM
- EC50 (HCV genotype 1a replicon; 1a NS3 Q80K): 0.25 ± 0.09 nM
- EC50 (HCV genotype 1a replicon; 1a NS3 R155K): 0.59 ± 0.19 nM
- EC50 (HCV genotype 1a replicon; 1a NS3 V36M): 0.27 ± 0.06 nM
- EC50 (HCV genotype 1a replicon; 1a NS3 V55I): 0.1 ± 0.02 nM
- EC50 (HCV genotype 1a replicon; 1a NS3 Y56H): 2.2 ± 0.73 nM
- EC50 (HCV genotype 1a replicon; 1a wild type, transient transfection): 0.14 ± 0.06 nM
- EC50 (HCV genotype 1b replicon; 1b NS3 A156T): 39 ± 4.3 nM
- EC50 (HCV genotype 1b replicon; 1b NS3 A156V): 68 ± 8.2 nM
- EC50 (HCV genotype 1b replicon; 1b NS3 D168A): 8.5 ± 0.37 nM
- EC50 (HCV genotype 1b replicon; 1b NS3 D168E): 0.78 ± 0.05 nM
- EC50 (HCV genotype 1b replicon; 1b NS3 D168V): 4.1 ± 0.11 nM
- EC50 (HCV genotype 1b replicon; 1b wild type, transient transfection): 0.19 ± 0.05 nM
- EC50 (HCV genotype 4a replicon; 4a NS3 A156T, read-out: Mean EC50 ± SD): 296 ± 22 nM
- EC50 (HCV genotype 4a replicon; 4a NS3 A156V, read-out: Mean EC50 ± SD): 169 ± 27 nM
- EC50 (HCV genotype 4a replicon; 4a NS3 D168H, read-out: Mean EC50 ± SD): 25 ± 6.3 nM
- EC50 (HCV genotype 4a replicon; 4a NS3 D168V, read-out: Mean EC50 ± SD): 13 ± 1.1 nM
- EC50 (HCV genotype 4a replicon; 4a NS3 R155C, read-out: Mean EC50 ± SD): 2 ± 0.27 nM
- EC50 (HCV genotype 4a replicon; 4a wild type, transient transfection, read-out: Mean EC50 ± SD): 0.28 ± 0.04 nM
- EC50 (HCV genotype 6a replicon; 6a NS3 D168A, read-out: Mean EC50 ± SD): 103 ± 34 nM
- EC50 (HCV genotype 6a replicon; 6a NS3 D168H, read-out: Mean EC50 ± SD): 45 ± 4.1 nM
- EC50 (HCV genotype 6a replicon; 6a NS3 D168V, read-out: Mean EC50 ± SD): 24 ± 1.2 nM
- EC50 (HCV genotype 6a replicon; 6a wild type, transient transfection, read-out: Mean EC50 ± SD): 0.1 ± 0.02 nM
- EC50 (HCV genotype 2b replicon; 2b NS3 A156T, read-out: Mean EC50 ± SD): 1560 nM
- EC50 (HCV genotype 2b replicon; 2b NS3 A156V, read-out: Mean EC50 ± SD): 2890 nM
- EC50 (HCV genotype 2b replicon; 2b NS3 D168A, read-out: Mean EC50 ± SD): 347 ± 113 nM
- EC50 (HCV genotype 2b replicon; 2b NS3 D168E, read-out: Mean EC50 ± SD): 35 ± 6 nM
- EC50 (HCV genotype 2b replicon; 2b NS3 D168V, read-out: Mean EC50 ± SD): 88 ± 19 nM
- EC50 (HCV genotype 2b replicon; 2b wild type, transient transfection, read-out: Mean EC50 ± SD): 6.1 ± 1.3 nM
- EC50 (HCV genotype 5a replicon): 0.06 ± 0.02 nM
- EC50 (HCV genotype 2a replicon; 2a NS3 A156T): 1150 nM
- EC50 (HCV genotype 2a replicon; 2a NS3 A156V): 1960 nM
- EC50 (HCV genotype 2a replicon; 2a NS3 D168A): 139 ± 9.4 nM
- EC50 (HCV genotype 2a replicon; 2a NS3 D168E): 62 ± 10 nM
- EC50 (HCV genotype 2a replicon; 2a NS3 D168V): 24 ± 0.94 nM
- EC50 (HCV genotype 2a replicon; 2a wild type, transient transfection): 10.5 ± 1.4 nM
- EC50 (HCV genotype 4d replicon; 4d NS3 D168V, read-out: Mean EC50 ± SD): 2.5 ± 0.08 nM
- EC50 (HCV genotype 4d replicon; 4d wild type, transient transfection, read-out: Mean EC50 ± SD): 0.18 ± 0.01 nM
- EC50 (HCV genotype 3a replicon; 3a NS3 A156G, read-out: Mean EC50 ± SD): 614 ± 148 nM
- EC50 (HCV genotype 3a replicon; 3a NS3 Q168R, read-out: Mean EC50 ± SD): 165 ± 46 nM
- EC50 (HCV genotype 3a replicon; 3a wild type, transient transfection, read-out: Mean EC50 ± SD): 47 ± 14 nM

Structure (SMILES): CC(C)(C)[C@@H]1NC(=O)O[C@@H]2CCC[C@H]2OC/C=C/C(F)(F)c2nc3ccccc3nc2O[C@@H]2C[C@@H](C(=O)N[C@]3(C(=O)NS(=O)(=O)C4(C)CC4)C[C@H]3C(F)F)N(C2)C1=O [Glecaprevir, (3aR,7S,10S,12R,21E,24aR)-7-tert-butyl-N-[(1R,2R)-2-(difluoromethyl)-1-{[(1-methylcyclopropyl)sulfonyl]carbamoyl}cyclopropyl]-20,20-difluoro-5,8-dioxo-2,3,3a,5,6,7,8,11,12,20,23,24a-dodecahydro-1H,10H-9,12-methanocyclopenta[18,19][1,10,17,3,6]trioxadiazacyclononadecino[11,12-b]quinoxaline-10-carboxamide]
- EC50 [1, 5]: 0.86 ± 0.11 nM
- EC50 [2, 5]: 2.8 ± 0.41 nM
- EC50 [3, 5]: 1.9 ± 0.62 nM
- EC50 [4]: 4.6 ± 1.2 nM
- EC50 (HCV genotype 4a replicon; Hepatitis C virus, read-out: Mean EC50 ± SD, 4a NS3 A156T): 962 ± 374 nM
- EC50 (HCV genotype 4a replicon; Hepatitis C virus, read-out: Mean EC50 ± SD, 4a NS3 A156V): 2080 nM
- EC50 (HCV genotype 4a replicon; Hepatitis C virus, read-out: Mean EC50 ± SD, 4a NS3 D168H): 15 ± 6.1 nM
- EC50 (HCV genotype 4a replicon; Hepatitis C virus, read-out: Mean EC50 ± SD, 4a NS3 D168V): 6.5 ± 3 nM
- EC50 (HCV genotype 4a replicon; Hepatitis C virus, read-out: Mean EC50 ± SD, 4a NS3 R155C): 1.7 ± 0.47 nM
- EC50 (HCV genotype 4a replicon; Hepatitis C virus, read-out: Mean EC50 ± SD, 4a wild type, transient transfection): 0.67 nM
- EC50 (HCV genotype 6a replicon; Hepatitis C virus, read-out: Mean EC50 ± SD, 6a NS3 D168A): 12 ± 5.8 nM
- EC50 (HCV genotype 6a replicon; Hepatitis C virus, read-out: Mean EC50 ± SD, 6a NS3 D168H): 22 ± 5.7 nM
- EC50 (HCV genotype 6a replicon; Hepatitis C virus, read-out: Mean EC50 ± SD, 6a NS3 D168V): 5.8 ± 2.2 nM
- EC50 (HCV genotype 6a replicon; Hepatitis C virus, read-out: Mean EC50 ± SD, 6a wild type, transient transfection): 0.15 nM
- EC50 (HCV genotype 2b replicon; Hepatitis C virus, read-out: Mean EC50 ± SD, 2b NS3 A156T): 460 ± 172 nM
- EC50 (HCV genotype 2b replicon; Hepatitis C virus, read-out: Mean EC50 ± SD, 2b NS3 A156V): 4510 nM
- EC50 (HCV genotype 2b replicon; Hepatitis C virus, read-out: Mean EC50 ± SD, 2b NS3 D168A): 3.9 ± 1 nM
- EC50 (HCV genotype 2b replicon; Hepatitis C virus, read-out: Mean EC50 ± SD, 2b NS3 D168E): 6.6 ± 1.8 nM
- EC50 (HCV genotype 2b replicon; Hepatitis C virus, read-out: Mean EC50 ± SD, 2b NS3 D168V): 9.1 ± 1.2 nM
- EC50 (HCV genotype 2b replicon; Hepatitis C virus, read-out: Mean EC50 ± SD, 2b wild type, transient transfection): 3.1 nM
- EC50 (HCV genotype 4d replicon; Hepatitis C virus, 96 h, read-out: Mean EC50 ± SD, 4d wild type, transient transfection): 0.15 ± 0.04 nM
- EC50 (HCV genotype 3a replicon; Hepatitis C virus, read-out: Mean EC50 ± SD, 3a NS3 A156G): 909 ± 349 nM
- EC50 (HCV genotype 3a replicon; Hepatitis C virus, read-out: Mean EC50 ± SD, 3a NS3 Q168R): 30 ± 10 nM
- EC50 (HCV genotype 3a replicon; Hepatitis C virus, read-out: Mean EC50 ± SD, 3a wild type, transient transfection): 0.55 nM
